Source: patent publication US10501518B2 (priority 2013, dated 2019)
Starred links: 1 amine or outer side, 2 acyl side, 3 side chain; linkers in the order of their positions; H or OH if unused. Non-standard residues stand in square brackets, D forms with d. Residues, ends and D or L forms follow the SMILES beside them. *: point of attachment. NH(1S,2S-2-CONH2-cPent) = NC(=O)[C@H]1CCC[C@@H]1N*; X12 = O=C([C@H]1CCC[C@@H]1N[*:1])[*:2]; X13 = O=C([C@H]1CNC[C@@H]1N[*:1])[*:2]; ACPC(1S,2S) = N[C@H]1CCC[C@@H]1C(=O)*; hArg = N=C(N)NCCCC[C@H](N)C(=O)O; Aib = CC(C)(N)C(=O)O

Columns and labels:
[1] = mouse, in vivo; cited from earlier work
[2] = Stability in simulated gastric fluid; type: in vitro ADME

SMILES	bioavailability (previously shown) [1]	stability in simulated gastric fluid [2]
CC[C@H](C)[C@H](NC(=O)[C@H](CCC(=O)O)NC(=O)[C@H](C)NC(=O)[C@@H](NC(=O)[C@H](C)N)C(C)C)C(=O)N[C@@H](CCC(N)=O)C(=O)N[C@@H](CC(C)C)C(=O)N[C@@H](CCSC)C(=O)N[C@@H](Cc1cnc[nH]1)C(=O)N[C@@H](CCC(N)=O)C(=O)N[C@@H](CCCCNC(=N)N)C(=O)N[C@@H](C)C(=O)N[C@@H](CCCCN)C(=O)N[C@@H](Cc1c[nH]c2ccccc12)C(=O)N[C@@H](CC(C)C)C(=O)N[C@@H](CC(N)=O)C(=O)N[C@@H](CO)C(=O)N[C@@H](CCSC)C(=O)N[C@@H](CCCNC(=N)N)C(=O)N[C@@H](CCCNC(=N)N)C(=O)N[C@H](C(=O)N[C@@H](CCC(=O)O)C(=O)N[C@@H](Cc1c[nH]c2ccccc12)C(=O)N[C@@H](CC(C)C)C(=O)N[C@@H](CCCNC(=N)N)C(=O)N[C@@H](CCCCN)C(=O)N[C@@H](CCCCN)C(=O)N[C@@H](CC(C)C)C(=O)N[C@@H](CCC(N)=O)C(=O)N[C@@H](CC(=O)O)C(=O)N[C@H](C(=O)N[C@@H](Cc1cnc[nH]1)C(=O)N[C@@H](CC(N)=O)C(=O)N[C@@H](Cc1ccccc1)C(N)=O)C(C)C)C(C)C [M-PTH(1-34)] (H-AVAEIQLMHQ[hArg]AKWLNSMRRVEWLRKKLQDVHNF-NH2)	native-like bioavailability	–
CSCC[C@H](NC(=O)[C@H]1CCC[C@@H]1NC(=O)[C@H](CCC(N)=O)NC(=O)[C@H]1CCC[C@@H]1NC(=O)[C@H](CCC(=O)O)NC(=O)C(C)(C)NC(=O)[C@@H](NC(=O)[C@H]1CCC[C@@H]1N)C(C)C)C(=O)N[C@@H](Cc1cnc[nH]1)C(=O)N[C@@H](CCC(N)=O)C(=O)N[C@@H](CCCCNC(=N)N)C(=O)N[C@@H](C)C(=O)N[C@@H](CCCCN)C(=O)N[C@H]1CCC[C@@H]1C(=O)N[C@@H](CC(C)C)C(=O)N[C@@H](CC(N)=O)C(=O)N[C@@H](CO)C(=O)N[C@H]1CCC[C@@H]1C(=O)N[C@@H](CCCNC(=N)N)C(=O)N[C@@H](CCCNC(=N)N)C(=O)N[C@H](C(=O)N[C@H]1CNC[C@@H]1C(=O)N[C@@H](Cc1c[nH]c2ccccc12)C(=O)N[C@@H](CC(C)C)C(=O)N[C@@H](CCCNC(=N)N)C(=O)N[C@H]1CNC[C@@H]1C(=O)N[C@@H](CCCCN)C(=O)N[C@@H](CC(C)C)C(=O)N[C@@H](CCC(N)=O)C(=O)N[C@H]1CCC[C@@H]1C(=O)N[C@H](C(=O)N[C@@H](Cc1cnc[nH]1)C(=O)N[C@@H](CC(N)=O)C(=O)N[C@H]1CCC[C@@H]1C(N)=O)C(C)C)C(C)C [M-X1,5,7-FcycD6, XVUEXQXMHQ^hRAKXLNSXRRVZWLRZKLQXVHNX--NH2] ({ACPC(1S,2S)}-V[Aib]E[X12]Q[X12]MHQ[hArg]AK[X12]LNS[X12]RRV[X13]WLR[X13]KLQ[X12]VHN-{NH(1S,2S-2-CONH2-cPent)})	–	good stability
